As usually defined, the IC50 is the concentration that gives 50% inhibition.

The target of the assay is T1, human capsaicin receptor (Homo sapiens, UniProt Q8NER1).
T1 construct: transfected with the pBK-CMV expression construct encoding the full length human capsaicin receptor; expressed in transfected cells; host or cells: HEK293, stably transfected clonal lines, plasmid pBK-CMV
T1 sequence (Q8NER1 whole entry): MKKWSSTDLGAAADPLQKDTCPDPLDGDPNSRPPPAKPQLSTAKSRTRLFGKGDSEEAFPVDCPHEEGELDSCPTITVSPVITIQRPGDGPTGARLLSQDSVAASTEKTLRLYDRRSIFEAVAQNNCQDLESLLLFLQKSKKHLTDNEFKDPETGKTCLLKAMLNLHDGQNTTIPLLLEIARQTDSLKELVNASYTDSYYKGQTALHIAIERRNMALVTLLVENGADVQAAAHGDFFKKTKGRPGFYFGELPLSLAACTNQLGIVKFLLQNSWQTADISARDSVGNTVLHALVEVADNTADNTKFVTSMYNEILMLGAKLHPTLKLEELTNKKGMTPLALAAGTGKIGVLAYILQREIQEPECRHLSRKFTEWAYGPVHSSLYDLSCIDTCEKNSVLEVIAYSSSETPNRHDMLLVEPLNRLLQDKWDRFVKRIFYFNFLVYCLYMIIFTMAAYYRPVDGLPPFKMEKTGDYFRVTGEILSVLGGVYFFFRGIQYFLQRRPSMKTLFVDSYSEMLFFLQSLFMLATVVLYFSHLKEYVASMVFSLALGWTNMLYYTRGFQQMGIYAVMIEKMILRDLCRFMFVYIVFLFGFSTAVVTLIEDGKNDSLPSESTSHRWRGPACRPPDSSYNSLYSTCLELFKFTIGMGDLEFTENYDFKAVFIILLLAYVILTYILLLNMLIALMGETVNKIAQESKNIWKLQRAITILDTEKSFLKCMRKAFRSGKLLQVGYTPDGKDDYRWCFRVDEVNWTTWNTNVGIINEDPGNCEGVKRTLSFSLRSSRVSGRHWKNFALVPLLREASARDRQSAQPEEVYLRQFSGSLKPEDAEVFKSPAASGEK
The experiment in a line: Calcium mobilization assay, determination of antagonist activity (Example 6). The settings on record: concentration giving 50% decrease in the fluorescence response of cells expressing human capsaicin receptor exposed to capsaicin. The class given is cell-based. On the procedure: A cDNA encoding full length human capsaicin receptor (SEQ ID NO:1, 2 or 3 of U.S. Pat. No. 6,482,611) was subcloned in the plasmid pBK-CMV (Stratagene, La Jolla, Calif.) for recombinant expression in mammalian cells.
Human embryonic kidney (HEK293) cells were transfected with the pBK-CMV expression construct encoding the full length human capsaicin receptor using standard methods. The transfected cells were selected for two weeks in media containing G418 (400 μg/ml) to obtain a pool of stably transfected cells. Independent clones were isolated from this pool by limiting dilution to obtain clonal stable cell lines for use in subsequent experiments.
Cells transfected with expression plasmids (as described in Example 4) and thereby expressing human capsaicin receptor are seeded and grown to 70-90% confluency in FALCON black-walled, clear-bottomed 96-well plates (#3904, BECTON-DICKINSON, Franklin Lakes, N.J.). The culture medium is emptied from the 96 well plates and FLUO-3 AM calcium sensitive dye (Molecular Probes, Eugene, Oreg.) is added to each well (dye solution: 1 mg FLUO-3 AM, 440 μL DMSO and 440 μl 20% pluronic acid in DMSO, diluted 1:250 in Krebs-Ringer HEPES (KRH) buffer (25 mM HEPES, 5 mM KCl, 0.96 mM NaH2PO4, 1 mM MgSO4, 2 mM CaCl2, 5 mM glucose, 1 mM probenecid, pH 7.4), 50 μl diluted solution per well). Plates are covered with aluminum foil and incubated at 37° C. for 1-2 hours in an environment containing 5% CO2. After the incubation, the dye is emptied from the plates, and the cells are washed once with KRH buffer, and resuspended in KRH buffer.
To measure the ability of a test compound to agonize or antagonize a calcium mobilization response in cells expressing capsaicin receptors to capsaicin or other vanilloid agonist, the EC50 of the agonist capsaicin is first determined. An additional 20 μl of KRH buffer and 1 μl DMSO is added to each well of cells, prepared as described above. 100 μl capsaicin in KRH buffer is automatically transferred by the FLIPR instrument to each well. Capsaicin-induced calcium mobilization is monitored using either FLUOROSKAN ASCENT (Labsystems; Franklin, Mass.) or FLIPR (fluorometric imaging plate reader system; Molecular Devices, Sunnyvale, Calif.) instruments. Data obtained between 30 and 60 seconds after agonist application are used to generate an 8-point concentration response curve, with final capsaicin concentrations of 1 nM to 3 μM. […] software (Synergy Software, Reading, Pa.) is used to fit the data to the equation: y=a*(1/(1+(b/x)^c)) to determine the 50% excitatory concentration (EC50) for the response. In this equation, y is the maximum fluorescence signal, x is the concentration of the agonist or antagonist (in this case, capsaicin), a is the Emax, b corresponds to the EC50 value and c is the Hill coefficient. Determination Agonist Activity
Test compounds are dissolved in DMSO, diluted in 20 μl KRH buffer so that the final concentration of test compounds in the assay well is between 1 μM and 5 μM, and added to cells prepared as described above. The 96 well plates containing prepared cells and test compounds are incubated in the dark, at room temperature for 0.5 to 6 hours. It is important that the incubation not continue beyond 6 hours. Just prior to determining the fluorescence response, 100 μl capsaicin in KRH buffer at twice the EC50 concentration determined as described above is automatically added by the FLIPR instrument to each well of the 96 well plate for a final sample volume of 200 μl and a final capsaicin concentration equal to the EC50. The final concentration of test compounds in the assay wells is between 1 μM and 5 μM.
(In general: A change in cytosolic calcium serves as a functional read-out for many receptors and channels.)
For the molecule `COc1ccccc1CNc1nc(N)nc(Nc2ccc(C(C)(C)C)cc2)n1` [Compound 46, N-(4-tert-Butyl-phenyl)-N′-(2-methoxy-benzyl)-[1,3,5]triazine-2,4,6-triamine], the IC50 was at most 1000 nM.
As for `CC(C)(C)c1ccc(Nc2cc(NCc3cccnc3)ncn2)cc1` [Compound 57, N-(4-tert-Butyl-phenyl)-N′-pyridin-3-ylmethyl-pyrimidine-4,6-diamine], the figure is at most 1000 nM; as for `CC(C)(C)c1ccc(Nc2nc(Cl)nc(N3CCc4ccccc4C3)n2)cc1` [Compound 5, (4-tert-Butyl-phenyl)-[4-chloro-6-(3,4-dihydro-1H-isoquinolin-2-yl)-[1,3,5]triazin-2-yl]-amine], at most 1000 nM; as for `CC(C)(C)c1ccc(Nc2cc(OCc3ccccc3C(F)(F)F)nc(N)n2)cc1` [Compound 60, N4-(4-tert-Butyl-phenyl)-6-(2-trilfuoromethyl-benzyloxy)-pyrimidine-2,4-diamine], at most 1000 nM.
As for `COc1cccc(CNc2cc(Nc3ccc(C(C)(C)C)cc3)ncn2)c1` [Compound 51, N-(4-tert-Butyl-phenyl)-N′-(3-methoxy-benzyl)-pyrimidine-4,6-diamine], the figure is at most 1000 nM; as for `FC(F)(F)c1ccc(Nc2nc(OCc3ccccc3C(F)(F)F)nc(-c3ccccc3Cl)n2)cc1` [Compound 9, [4-(2-Chloro-phenyl)-6-(2-trifluoromethyl-benzyloxy)-[1,3,5]triazin-2-yl]-(4-trifluoromethyl-phenyl)-amine], at most 1000 nM; as for `CC(C)(C)c1ccc(Nc2cc(NCc3ccccc3C(F)(F)F)ncn2)cc1` [Compound 49, N-(4-tert-Butyl-phenyl)-N′-(2-trifluoromethyl-benzyl)-pyrimidine-4,6-diamine], at most 1000 nM.
Next, `CC(C)(C)c1ccc(Nc2cc(NCc3ccccc3)ncn2)cc1` [Compound 61, N-Benzyl-N′-(4-tert-butyl-phenyl)-pyrimidine-4,6-diamine]: at most 1000 nM; `FC(F)(F)c1ccc(Nc2nc(OCc3ccccc3C(F)(F)F)nc(-c3ccccc3C(F)(F)F)n2)cc1` [Compound 10, [4-(2-Trifluoromethyl-benzyloxy)-6-(2-trifluoromethyl-phenyl)-[1,3,5]triazin-2-yl]-(4-trifluoromethyl-phenyl)-amine]: at most 1000 nM.
For `CC(C)Nc1nc(Nc2ccc(C(F)(F)F)cc2)nc(OCc2ccccc2C(F)(F)F)n1` [Compound 67, N-Isopropyl-6-(2-trifluoromethyl-benzyloxy)-N′-(4-trifluoromethyl-phenyl)-[1,3,5]triazine-2,4-diamine], the IC50 is at most 1000 nM.
For `CCN(CC)c1nc(Nc2ccc(C(F)(F)F)cc2)nc(OCc2ccccc2C(F)(F)F)n1` [Compound 59, N,N-Diethyl-6-(2-trifluoromethyl-benzyloxy)-N′-(4-trifluoromethyl-phenyl)-[1,3,5]triazine-2,4-diamine], the IC50 is at most 1000 nM.
Regarding `CC(C)(C)c1ccc(Nc2cc(NCc3cccc(F)c3)ncn2)cc1` [Compound 50, N-(4-tert-Butyl-phenyl)-N′-(3-fluoro-benzyl)-pyrimidine-4,6-diamine], the IC50 is at most 1000 nM.
Next, `CC(C)(C)c1ccc(Nc2nc(OCc3ccccn3)nc(OCc3ccccn3)n2)cc1` [Compound 17, [4,6-Bis-(pyridin-2-ylmethoxy)-[1,3,5]triazin-2-yl]-(4-tert-butyl-phenyl)-amine]: at most 1000 nM; `CC(C)(C)c1ccc(Nc2cc(NCc3ccccc3F)ncn2)cc1` [Compound 44, N-(4-tert-Butyl-phenyl)-N′-(2-fluoro-benzyl)-pyrimidine-4,6-diamine]: at most 1000 nM.
Next, `COc1ccccc1COc1nc(Nc2ccc(C(C)(C)C)cc2)nc(OCc2ccccc2OC)n1` [Compound 13, [4,6-Bis-(2-methoxy-benzyloxy)-[1,3,5]triazin-2-yl]-(4-tert-butyl-phenyl)-amine]: at most 1000 nM; `FC(F)(F)c1ccc(Nc2nc(OCc3ccccc3C(F)(F)F)nc(-c3cccnc3)n2)cc1` [Compound 23, [4-Pyridin-3-yl-6-(2-trifluoromethyl-benzyloxy)-[1,3,5]triazin-2-yl]-(4-trifluoromethyl-phenyl)-amine]: at most 1000 nM.
As for `CC(C)(C)c1ccc(Nc2nc(Cl)nc(OCc3ccccc3C(F)(F)F)n2)cc1` [Compound 4, (4-tert-Butyl-phenyl)-[4-chloro-6-(2-trifluoromethyl-benzyloxy)-[1,3,5]triazin-2-yl]-amine], the figure is at most 1000 nM; as for `FC(F)(F)c1ccc(Nc2nc(NC3CCCCC3)nc(OCc3ccccc3C(F)(F)F)n2)cc1` [Compound 64, N-Cyclohexyl-6-(2-trifluoromethyl-benzyloxy)-N′-(4-trifluoromethyl-phenyl)-[1,3,5]triazine-2,4-diamine], at most 1000 nM.
Regarding `CC(C)CCNc1nc(Nc2ccc(C(F)(F)F)cc2)nc(OCc2ccccc2C(F)(F)F)n1` [Compound 29, N-(3-Methyl-butyl)-6-(2-trifluoromethyl-benzyloxy)-N′-(4-trifluoromethyl-phenyl)-[1,3,5]triazine-2,4-diamine], the IC50 is at most 1000 nM.
As for `CN1CCN(c2nc(Nc3ccc(C(C)(C)C)cc3)nc(OCc3ccccc3C(F)(F)F)n2)CC1` [Compound 1, (4-tert-Butyl-phenyl)-[4-(4-methyl-piperazin-1-yl)-6-(2-trifluoromethyl-benzyloxy)-[1,3,5]triazine-2-yl]-amine], the figure is at most 1000 nM; as for `CC(C)(C)c1ccc(Nc2cc(NCc3ccccc3Cl)ncn2)cc1` [Compound 42, N-(4-tert-Butyl-phenyl)-N′-(2-chloro-benzyl)-pyrimidine-4,6-diamine], at most 1000 nM; as for `Cc1nc(NCc2ccccc2Cl)nc(Nc2ccc(C(C)(C)C)cc2)n1` [Compound 40, N-(4-tert-Butyl-phenyl)-N′-(2-chloro-benzyl)-6-methyl-[1,3,5]triazine-2,4-diamine], at most 1000 nM.
Next, `COc1nc(NCc2ccccc2Cl)nc(Nc2ccc(C(C)(C)C)cc2)n1` [Compound 39, N-(4-tert-Butyl-phenyl)-N′-(2-chloro-benzyl)-6-methoxy-[1,3,5]triazine-2,4-diamine]: at most 1000 nM; `CC(C)(C)Nc1nc(Nc2ccc(C(F)(F)F)cc2)nc(OCc2ccccc2C(F)(F)F)n1` [Compound 68, N-tert-Butyl-6-(2-trifluoromethyl-benzyloxy)-N′-(4-trifluoromethyl-phenyl)-[1,3,5]triazine-2,4-diamine]: at most 1000 nM.
On to `CC(C)(C)c1ccc(Nc2cc(NCc3ccc(Cl)cc3)ncn2)cc1` [Compound 52, N-(4-tert-Butyl-phenyl)-N′-(4-chloro-benzyl)-pyrimidine-4,6-diamine], for which the IC50 is at most 1000 nM.
As for `CC(C)(C)c1ccc(Nc2nc(Cl)nc(NCc3ccccc3Cl)n2)cc1` [Compound 33, N-(4-tert-Butyl-phenyl)-6-chloro-N′-(2-chloro-benzyl)-[1,3,5]triazine-2,4-diamine], the figure is at most 1000 nM; as for `COc1ccccc1CNc1cc(Nc2ccc(C(C)(C)C)cc2)ncn1` [Compound 47, N-(4-tert-Butyl-phenyl)-N′-(2-methoxy-benzyl)-pyrimidine-4,6-diamine], at most 1000 nM.
As for `CC(C)(C)c1ccc(Nc2nc(OCc3ccccc3F)nc(OCc3ccccc3F)n2)cc1` [Compound 12, [4,6-Bis-(2-fluoro-benzyloxy)-[1,3,5]triazin-2-yl]-(4-tert-butyl-phenyl)-amine], the IC50 is at most 1000 nM.
As for `CC(C)(C)c1ccc(Nc2nc(N)nc(OCc3ccccc3F)n2)cc1` [Compound 31, N-(4-tert-Butyl-phenyl)-6-(2-fluoro-benzyloxy)-[1,3,5]triazine-2,4-diamine], the figure is at most 1000 nM.

For the origin of these results see patent US20070161637A1, “Substituted pyridin-2-ylamine analogues” (Neurogen Corporation, priority 2003, published 2007).
